Test results from ChEMBL document CHEMBL4819145, “Synthesis and evaluation of bifunctional PTP4A3 phosphatase inhibitors activating the ER stress pathway” (Bioorg Med Chem Lett, 2021).
Blank lines part the entries; values can stand above or below the molecule they belong to. Activity calls are given as the source filed them. The rule behind the calls is not given here.

Experiments:
MDA-MB-231 [1] = assay: Induction of ER stress in human MDA-MB-231 cells assessed as increase in DDIT3 mRNA expression at 2XEC50 measured after 6 hrs by qPCR method; type: functional, cell-based
[2] = molecular target: T1, Tyrosine-protein phosphatase non-receptor type 1 (Homo sapiens) (UniProt P18031); assay: Inhibition of PTP1B (unknown origin) at 1 uM
T1 sequence (whole entry): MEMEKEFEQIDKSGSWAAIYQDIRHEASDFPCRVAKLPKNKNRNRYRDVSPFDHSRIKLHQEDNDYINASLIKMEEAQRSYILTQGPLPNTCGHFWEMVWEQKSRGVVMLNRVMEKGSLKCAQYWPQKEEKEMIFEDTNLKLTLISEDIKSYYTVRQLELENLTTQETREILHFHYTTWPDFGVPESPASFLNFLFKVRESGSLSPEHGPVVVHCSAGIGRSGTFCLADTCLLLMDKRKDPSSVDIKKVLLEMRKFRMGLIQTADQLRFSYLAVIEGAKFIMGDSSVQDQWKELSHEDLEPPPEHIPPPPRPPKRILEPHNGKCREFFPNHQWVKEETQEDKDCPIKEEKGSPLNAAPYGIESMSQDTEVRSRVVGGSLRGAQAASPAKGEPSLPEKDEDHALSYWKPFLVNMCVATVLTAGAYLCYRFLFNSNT

[3] = molecular target: T2, M-phase inducer phosphatase 2 (Homo sapiens) (UniProt P30305); assay: Inhibition of CDC25B (unknown origin) at 1 uM
T2 sequence (whole entry): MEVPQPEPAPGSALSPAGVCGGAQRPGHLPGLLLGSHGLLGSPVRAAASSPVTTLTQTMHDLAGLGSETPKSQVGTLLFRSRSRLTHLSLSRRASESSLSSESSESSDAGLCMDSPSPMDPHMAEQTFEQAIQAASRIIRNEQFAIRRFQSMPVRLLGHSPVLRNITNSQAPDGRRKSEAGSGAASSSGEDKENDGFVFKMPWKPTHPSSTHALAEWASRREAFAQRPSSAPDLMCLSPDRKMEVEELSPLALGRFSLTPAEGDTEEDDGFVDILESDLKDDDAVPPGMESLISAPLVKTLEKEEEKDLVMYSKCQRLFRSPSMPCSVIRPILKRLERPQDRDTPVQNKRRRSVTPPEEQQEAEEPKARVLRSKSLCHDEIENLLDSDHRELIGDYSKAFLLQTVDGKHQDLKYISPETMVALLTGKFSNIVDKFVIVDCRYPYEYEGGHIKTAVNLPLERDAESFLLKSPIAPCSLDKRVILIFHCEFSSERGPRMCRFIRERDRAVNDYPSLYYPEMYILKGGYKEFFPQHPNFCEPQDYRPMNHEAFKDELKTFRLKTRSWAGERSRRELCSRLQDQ

MDA-MB-231 [4] = assay: Induction of ER stress in human MDA-MB-231 cells assessed as increase in HSPA5A mRNA expression at 2XEC50 measured after 6 hrs by qPCR method; type: functional, cell-based
MDA-MB-231 [5] = assay: Induction of ER stress in human MDA-MB-231 cells assessed as increase in sXbp1 mRNA expression at 2XEC50 measured after 6 hrs by qPCR method; type: functional, cell-based
[6] = molecular target: Dual specificity protein phosphatase 3 (Homo sapiens) (UniProt P51452); assay: Inhibition of DUSP3 (unknown origin) at 1 uM
Dual specificity protein phosphatase 3 (Homo sapiens), sequence (P51452 whole entry, looked up): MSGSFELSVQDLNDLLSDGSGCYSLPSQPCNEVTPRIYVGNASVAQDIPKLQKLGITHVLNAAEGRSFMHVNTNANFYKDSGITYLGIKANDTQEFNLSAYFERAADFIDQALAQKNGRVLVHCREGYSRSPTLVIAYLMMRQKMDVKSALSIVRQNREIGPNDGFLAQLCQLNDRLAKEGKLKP

MDA-MB-231 [7] = assay: Induction of ER stress in human MDA-MB-231 cells assessed as increase in DDIT3 mRNA expression at 2 mM measured after 2 hrs by qPCR method; type: functional, cell-based
MDA-MB-231 [8] = assay: Induction of ER stress in human MDA-MB-231 cells assessed as increase in HSPA5A mRNA expression at 2 mM measured after 2 hrs by qPCR method; type: functional, cell-based
MDA-MB-231 [9] = assay: Induction of ER stress in human MDA-MB-231 cells assessed as increase in sXbp1 mRNA expression at 2 mM measured after 2 hrs by qPCR method; type: functional, cell-based
MDA-MB-231 [10] = assay: Cytotoxicity against JMS-053-pretreated human MDA-MB-231 cells at 20 to 60 uM measured after 72 hrs by CellTiter-Glo assay; type: functional, cell-based; details: dose 20-60 µM
MDA-MB-231 [11] = assay: cells; details: Homo sapiens, MDA-MB-231, 72 h

inhibition [2]: < 11%
inhibition [3]: < 11%
inhibition [6]: < 11%
SMILES: N=C1C(=O)NC(=O)c2cc(-c3ccc(OCCCCNC(=O)CC45CC6CC(CC(C6)C4)C5)cc3)sc21
Activity (MDA-MB-231 [1]): Active
Activity (MDA-MB-231 [4]): Active
Activity (MDA-MB-231 [5]): Active

SMILES: OC(CS)C(O)CS (stereo unspecified)
Activity (MDA-MB-231 [7]): Active
Activity (MDA-MB-231 [8]): Active
Activity (MDA-MB-231 [9]): Active

SMILES: O=C(CC12CC3CC(CC(C3)C1)C2)NCCCCO
Activity (MDA-MB-231 [10]): inactive
EC50 (MDA-MB-231 [11]): > 50 µM
